{"source": "patent US5597845A", "about": "“Substituted alkyldiamine derivatives” (Merrell Pharmaceuticals Inc., priority 1994, dated 1997)", "key": {"NK1 receptor [1]": {"biological_target": "T1, NK1 receptor (Cavia porcellus, UniProt P30547)", "T1 construct": "evaluated in guinea pig lungs; tissue Keystone Biologicals, Cleveland, Ohio; host or cells: guinea pig lung", "T1 sequence (P30547 whole entry)": "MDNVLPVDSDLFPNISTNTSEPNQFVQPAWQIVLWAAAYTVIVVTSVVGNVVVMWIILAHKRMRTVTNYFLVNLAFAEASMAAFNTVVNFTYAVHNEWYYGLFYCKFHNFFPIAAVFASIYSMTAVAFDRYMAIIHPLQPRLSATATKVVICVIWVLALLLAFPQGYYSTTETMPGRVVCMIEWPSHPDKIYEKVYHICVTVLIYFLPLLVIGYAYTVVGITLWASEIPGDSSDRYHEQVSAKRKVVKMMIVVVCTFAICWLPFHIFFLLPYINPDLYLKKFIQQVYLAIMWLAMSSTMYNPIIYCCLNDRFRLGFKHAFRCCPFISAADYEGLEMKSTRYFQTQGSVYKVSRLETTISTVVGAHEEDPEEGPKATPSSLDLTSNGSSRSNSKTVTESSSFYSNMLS", "experiment": "Antagonism of iodinated tachykinin binding: NK1 receptor affinity in guinea pig lungs (125I-Bolton Hunter Lys-3 labeled substance P)", "conditions": "125I-substance P 0.1 nM, 90 min room temperature, mean of several experiments", "description": "(§1) The NK1 receptor affinity of proposed tachykinin antagonists was evaluated in guinea pig lungs (Keystone Biologicals, Cleveland, Ohio) and affinity for the NK2 receptor evaluated in HSKR-1 cells (which are mouse 3T3 fibroblasts expressing the human jejunal NK2 receptor). Tissues or cells were homogenized with a Polytron in 15 volumes of 50 mM Tris-HCl buffer (pH 7.4, 4° C.) and centrifuged. The pellet was resuspended in Tris-HCl buffer and was centrifuged; the pellet was washed twice by resuspension. The final pellet was resuspended at a concentration of 40 mg/ml for tissues and 20 mg/ml for cells in incubation buffer and remained at room temperature for at least 15 min prior to use. Receptor binding was initiated by addition of 250 ul membrane preparation in duplicate to 0.1 nM of the following radioligands: ^125 I-Bolton Hunter Lys-3 labeled substance P and ^125 iodohistidyl-1-neurokinin A; in a final volume of 500 ul of buffer containing 50 mM Tris-HCl (pH 7.4 at room temperature), 0.1% bovine serum albumin, 2 mM MnCl2, 40 ug/ml bacitracin, 4 μg/ml leupeptin and chymostatin, 1 μM thiorphan and various doses of the putative tachykinin antagonists. Incubations were performed at room temperature for 90 min (NK1 receptor assays) or 2 hr (NK2 receptor assay); binding was terminated by addition of 50 mM Tris-HCl buffer (pH 7.4, 4° C.) and filtration under vacuum through GF/B filters presoaked with 0.1% polyethyleneimine (NK, receptor assays) or 0.5% bovine serum albumin (NK2 receptor assay). Filter bound radioactivity was quantitated in a gamma counter. Nonspecific binding was defined as binding in the presence of 1 μM substance P or neurokinin A. Specific binding was calculated by subtracting nonspecific binding from total binding. Competition of iodinated SP or NKA binding by test compounds or standards was expressed as a percentage of this maximum competition. IC50 values (concentration required to inhibit 50% of receptor binding) were generated for each of the test compounds by nonlinear regression using an iterative curve fitting program (GraphPAD Inplot, San Diego, Calif.).\n(§2) IC50 values for some of the compounds of the present invention are found in Table 1 and represent the mean of several experiments."}, "[2]": {"biological_target": "T2, human jejunal NK2 receptor (Homo sapiens, UniProt P21452)", "T2 construct": "expressed in transfected cells; host or cells: HSKR-1 cells (mouse 3T3 fibroblasts)", "T2 sequence (P21452 1-398)": "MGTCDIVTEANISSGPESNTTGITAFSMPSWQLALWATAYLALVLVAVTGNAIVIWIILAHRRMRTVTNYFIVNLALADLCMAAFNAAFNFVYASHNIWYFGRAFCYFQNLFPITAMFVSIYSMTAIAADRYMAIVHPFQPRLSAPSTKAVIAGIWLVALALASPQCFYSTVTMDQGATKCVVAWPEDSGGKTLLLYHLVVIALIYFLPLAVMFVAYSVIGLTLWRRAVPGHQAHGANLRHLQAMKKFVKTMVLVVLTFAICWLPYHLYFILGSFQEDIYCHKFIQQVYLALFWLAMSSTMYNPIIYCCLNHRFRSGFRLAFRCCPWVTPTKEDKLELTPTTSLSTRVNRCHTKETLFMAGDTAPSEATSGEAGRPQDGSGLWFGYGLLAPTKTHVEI", "experiment": "Antagonism of iodinated tachykinin binding: NK2 receptor affinity in HSKR-1 cells (125 iodohistidyl-1-neurokinin A)", "conditions": "HSKR-1 cells (mouse 3T3 fibroblasts expressing human jejunal NK2 receptor); 125I-neurokinin A 0.1 nM; 2 hr room temperature; mean of several experiments", "description": "as §1, §2"}, "NK1 receptor [3]": {"biological_target": "T3, NK1 receptor (Homo sapiens, UniProt P25103)", "T3 construct": "Receptor source for NK1 receptor is UCll cells; endogenous in cells; host or cells: UC11 cells (printed UCll)", "T3 sequence (P25103 whole entry)": "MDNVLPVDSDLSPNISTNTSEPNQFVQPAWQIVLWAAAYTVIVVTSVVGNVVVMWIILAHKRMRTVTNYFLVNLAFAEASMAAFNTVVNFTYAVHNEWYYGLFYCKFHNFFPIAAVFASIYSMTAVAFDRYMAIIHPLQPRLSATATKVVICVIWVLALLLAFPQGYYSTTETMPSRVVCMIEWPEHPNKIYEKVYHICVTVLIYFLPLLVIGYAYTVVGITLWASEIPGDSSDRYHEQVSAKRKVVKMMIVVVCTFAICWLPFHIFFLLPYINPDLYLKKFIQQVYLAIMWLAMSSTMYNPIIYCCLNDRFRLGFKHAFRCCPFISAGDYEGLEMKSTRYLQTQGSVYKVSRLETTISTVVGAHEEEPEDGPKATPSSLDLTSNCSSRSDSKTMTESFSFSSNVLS", "experiment": "Antagonism of tachykinin (SP)-induced phosphatidylinositol (PI) turnover in vitro, UCll cells", "format": "cell-based", "conditions": "SP agonist, 3 experiments", "description": "(§3) Tachykinin-mediated phosphatidylinositol (PI, inositol phosphate) accumulation was measured in UCll or SKLKB82#3 cells in the presence and absence of NK1 or NK2 receptor antagonists, respectively. Tissues were incubated in Krebs-Henseleit buffer at 37° C. with 95% O2 --5% CO2 gassing. Tissues were then incubated with fresh buffer containing 100 μCi of myo-[2-^3 H(N)] inositol at 37° C. for 60 min with gentle gassing. After washing twice in 5 ml room temperature buffer containing 10 mM LiCl, tissues were incubated for 30 min at room temperature with a buffer change at 15 min. […] The third elution was collected and 1 ml counted in 7 ml scintillation fluid. A 50 μl aliquot of the organic (bottom) phase was removed, dried in a scintillation vial and counted in 7 ml scintillation fluid.\n(§4) The ratio of DPM in the aqueous phase aliquot (total inositol phosphates) to the DPM in the 50 μl organic phase aliquot (total [^3 H]inositol incorporated) was calculated for each sample. Data are expressed as a percent of agonist-induced accumulation of [^3 H]-inositol phosphates over basal levels. […] Dose-response graphs are constructed and the ability of the test compounds to inhibit tachykinin-induced phosphatidyinositol turnover determined with the aid of a computer program. […]"}, "NK2 receptor": {"biological_target": "T4, NK2 receptor (Bos taurus, UniProt P05363)", "T4 construct": "expressed in transfected cells; host or cells: SKLKB82#3 cells (murine B82 fibroblasts, own knowledge)", "T4 sequence (P05363 1-384)": "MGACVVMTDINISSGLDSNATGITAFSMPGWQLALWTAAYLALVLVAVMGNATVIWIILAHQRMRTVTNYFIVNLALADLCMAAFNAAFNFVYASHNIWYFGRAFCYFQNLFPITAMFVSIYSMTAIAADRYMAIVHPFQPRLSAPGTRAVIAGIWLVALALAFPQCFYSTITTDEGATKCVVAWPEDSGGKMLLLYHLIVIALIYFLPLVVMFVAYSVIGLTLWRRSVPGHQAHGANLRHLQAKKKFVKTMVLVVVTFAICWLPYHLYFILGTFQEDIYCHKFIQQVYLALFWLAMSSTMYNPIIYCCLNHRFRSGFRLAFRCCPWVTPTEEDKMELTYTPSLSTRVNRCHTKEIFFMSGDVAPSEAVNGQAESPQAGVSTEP", "experiment": "Antagonism of tachykinin (NKA)-induced phosphatidylinositol (PI) turnover in vitro, SKLKB82#3 cells", "format": "cell-based", "conditions": "NKA agonist, 3 experiments", "description": "as §3, §4"}, "UCll or SKLKB82#3 cells": {"system": "UCll or SKLKB82#3 cells", "experiment": "Phosphatidylinositol (PI) turnover in vitro, UCll or SKLKB82#3 cells, statements not split by receptor", "format": "cell-based", "description": "as §3, with “min. Buffer was removed and Krebs-Henseleit buffer (containing 40 μg/ml bacitracin, 4 μg/ml each of leupeptin and chymostatin, 0.1% bovine serum albumin and 10 mM each of thiorphan and LiCl) including the test compound is added. After 15 min, SP was added to UCll cells or NKA to SKLKB82#3 cells at various concentrations to start the reaction. After incubation for 60 min at room temperature the reaction was terminated by addition of 930 μl chloroform: methanol (1:2 by volume) to each tube, followed by 310 μl chloroform and 310 μl doubly distilled water.” for “min.”\nas §4, with “program. Data is expressed as percent stimulation of total inositol phosphate accumulation over basal levels and normalized to the maximum response produced by SP.” for “program.”"}}, "data": [{"smiles": "COC(=O)[C@H](Cc1c[nH]c2ccccc12)NCCN[C@@H](Cc1ccc2ccccc2c1)C(=O)N(C)Cc1ccccc1OC", "note": "[Compound No. 1]", "values": [{"measurement": "IC50", "setting": "NK1 receptor [1]", "result": 25.7, "unit": "nM"}, {"measurement": "IC50", "setting": "[2]", "result": 609, "unit": "nM"}, {"measurement": "-slope (Schild analysis), NK1 receptor", "setting": "NK1 receptor [3]", "result": 1.28}, {"measurement": "pA2, tachykinin-induced PI turnover, NK1 receptor", "setting": "NK1 receptor [3]; Schild analysis", "result": 7.34}, {"measurement": "-slope (Schild analysis), NK2 receptor", "setting": "NK2 receptor", "result": 1.11}, {"measurement": "pA2, tachykinin-induced PI turnover, NK2 receptor", "setting": "NK2 receptor; Schild analysis", "result": 6.70}, {"measurement": "slope of the lines obtained by a Schild analysis versus one", "setting": "UCll or SKLKB82#3 cells; Schild analysis, 3 experiments", "result": "not significantly different from one (1)"}, {"measurement": "PI turnover when administered by itself (agonist activity)", "setting": "UCll or SKLKB82#3 cells; compound alone, no tachykinin agonist", "result": "no PI turnover"}, {"measurement": "mode of antagonism", "setting": "UCll or SKLKB82#3 cells; from Schild analysis slope", "result": "competitive antagonist"}]}]}
